Laboratory results reported in US4070458A, “Novel physiologically active peptide and its n-acyl derivatives and processes for producing thereof” (priority 1974, dated 1978).
In brackets after ≈: the same amount, converted by molar mass. Like-named read-outs stand apart in the source and are kept apart here. Values belong to the molecule of their own block, whether it stands above or below them.

Key:
Cathepsin D = assay: Anti-cathepsin D activity (method of The Journal of Antibiotics 25 689 (1972)); type: biochemical
Experimental: (§1) As an example of one of the physiological activities of the peptide and N-acyl derivatives thereof obtained according to the present invention, anti-pepsin and anti-cathepsin D activities and also acute toxicity are given in Table 8. The activities (ID50) were assayed according to the method described above and The Journal of Antibiotics 25 689 (1972). The antiprotease activities of the peptide and N-acyl derivatives thereof are extremely high.

Acute toxicity in mice = type: in vivo; settings: mouse, in vivo, ip, abdominal injection
Experimental: as §1
(§2) Note: Acute toxicity was examined by administering the compounds to the
(§3) mice by abdominal injection
(§4) *This value was obtained by intravenous injection.

[1] = test system: enzyme which decomposes R-Val-Val-X-Ala-X to Val-X-Ala-X; assay: Effect of various inhibitors and metal ions on the enzyme activity; type: biochemical, Bacillus sphaericus ATCC 14577
pepsin (SIGMA, 2XCRY) = biological target: T1, pepsin (SIGMA, 2XCRY) (Sus scrofa, UniProt P00791); assay: Assay of pepsin-inhibitory activity (casein digestion); type: biochemical
T1 construct: purchased SIGMA 2XCRY
T1 sequence (P00791 60-385): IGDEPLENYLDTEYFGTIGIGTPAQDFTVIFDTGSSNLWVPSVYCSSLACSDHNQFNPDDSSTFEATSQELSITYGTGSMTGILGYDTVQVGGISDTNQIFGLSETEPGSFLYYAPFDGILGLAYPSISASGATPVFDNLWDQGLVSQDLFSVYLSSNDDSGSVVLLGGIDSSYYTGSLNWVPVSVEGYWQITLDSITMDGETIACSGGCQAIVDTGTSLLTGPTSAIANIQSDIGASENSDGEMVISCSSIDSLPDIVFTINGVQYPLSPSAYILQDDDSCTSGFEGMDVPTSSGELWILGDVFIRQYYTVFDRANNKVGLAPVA
Experimental: Assay of pepsin-inhibitory activity in this invention was performed according to the following method: A mixture of 1 ml of 0.6 %, by weight, highly purified casein dissolved in 0.08M lactate buffer solution, pH 2.2, 0.7 ml of 0.02M KCl-HCl buffer solution, pH 2.0, and 0.2 ml of solution containing the compound sample was incubated at 37° C for three minutes. To this mixture 4 mcg of pepsin (SIGMA, 2XCRY) dissolved in 0.1 ml of 0.2M KCl-HCl buffer solution were added. The mixture was incubated at 37° C for 30 minutes. The reaction was stopped by the addition of 2.0 ml of 1.7M perchloric acid. After one hour at room temperature, the optical density (a) of the supernatant liquid was read at 280 mμ. An inhibition rate was obtained according to:
where (b) is the optical density at 280 mμ of the tube without the sample solution.
The ID50 is defined as the amount necessary for 50 % of the inhibition rate.
as §1

Solubility in water = type: physicochemical
Text: The solubilities in water of the N-acyl derivatives according to the present invention are shown in Table 10 compared with the known N-acyl peptides having physiological activity.

[2] = Solubility of the hydrolysis product in organic solvents; type: physicochemical
mice = assay: Acute toxicity in mice; type: in vivo
Experimental: as §1, §2, §3, §4

Stomach ulcers in rats = assay: Stress stomach ulcers in rats (method of Takagi et al.); type: in vivo
Experimental: Stomach ulcers in rats made by the method described in Takagi et al. in the Japanese Journal of Pharmacology, 18, 9-19, […], that is, placing male rats in a cage at 23° C. for 22 hours, are protected or therapetuically treated by the compounds. When 50 mg/kg of pepstatin and the compounds according to the invention were orally given 30 minutes before the stress, and the rats were sacrificed 48 hours afte the stress, the curative ratio of the ulcers was 60 - 75%. When the dose was 10 mg/kg, the inhibition percentage of the ulcers was 50 - 60%.

[3] = Concentration 2 mM, Control (No Addition) 100
[4] = Concentration 10 mM, Control (No Addition) 100
[5] = casein, pH 2, 37° C, 30 minutes, read-out: ID50 Pepsin (converted)

Structure (SMILES): CC(C)C[C@H](NC(=O)[C@H](C)NC(=O)C[C@H](O)[C@H](CC(C)C)NC(=O)[C@@H](NC(=O)c1ccccc1)C(C)C)[C@@H](O)CC(=O)O [Benzoyl-Val-X-Ala-X, N-benzoyl-Val-X-Ala-X]
ID50 Cathepsin D (Cathepsin D): 0.05 µg/mL (≈ 0.0824 µM) | LD50 (Acute toxicity in mice): 1350 mg/kg

Structure (SMILES): [Cl-].[Cl-].[Zn+2] [Zinc Chloride]
Relative activity [1, 3]: 66 | Relative activity [1, 4]: 44

Structure (SMILES): CC(C)C[C@H](NC(=O)[C@H](C)NC(=O)C[C@H](O)[C@H](CC(C)C)NC(=O)[C@@H](NC(=O)C(C)Oc1ccccc1)C(C)C)[C@@H](O)CC(=O)O (some centres unmarked) [Phenoxypropionyl-Val-X-Ala-X, N-2-phenoxypropionyl-Val-X-Ala-X]
IC50 (pepsin (SIGMA, 2XCRY); [5]): 30.7 nM | Solubility in water (Solubility in water; 20° C): 15,000 mcg/ml | LD50 (Acute toxicity in mice): 2100 mg/kg

Structure (SMILES): O=C1CCC(=O)N1Br [N-Bromosuccinimide]
Inhibition of the enzyme ([1]; 2mM): Inhibition | Relative activity [1, 3]: 0

Structure (SMILES): [Cl][Co][Cl] [Cobalt Chloride]
Relative activity [1, 3]: 134 | Relative activity [1, 4]: 166

Structure (SMILES): CC(C)C[C@H](NC(=O)[C@H](C)NC(=O)C[C@H](O)[C@H](CC(C)C)NC(=O)[C@@H](NC(=O)COc1ccccc1)C(C)C)[C@@H](O)CC(=O)O [Phenoxyacetyl-Val-X-Ala-X, N-phenoxyacetyl-Val-X-Ala-X]
IC50 (pepsin (SIGMA, 2XCRY)): 31.4 nM | Solubility in water (Solubility in water; 20° C): 20,000 mcg/ml | LD50 (Acute toxicity in mice): 1500 mg/kg

Structure (SMILES): CC(C)C[C@H](NC(=O)[C@H](C)NC(=O)C[C@H](O)[C@H](CC(C)C)NC(=O)[C@@H](N)C(C)C)[C@@H](O)CC(=O)O [Val-X-Ala-X, L-valyl-4-amino-3-hydroxy-6-methylheptanoyl-L-alanyl-4-amino-3-hydroxy-6-m ethylheptanoic acid]
Solubility ([2]; ether, ethyl acetate, and butyl acetate): insoluble | Solubility ([2]; methanol, ethanol, pyridine, and acetic acid): soluble | Solubility ([2]; n-propanol, n-butanol, n-amyl alcohol and acetone): slightly soluble | IC50 (pepsin (SIGMA, 2XCRY)): 19900 nM | Acute toxicity LD0 (mice; abdominal injection): ≥ 5000 mg/kg

Relative activity [1, 3]: 30
Structure (SMILES): O=C(O)CN(CCN(CC(=O)O)CC(=O)O)CC(=O)O [Ethylenediaminetetraacetic Acid]

Structure (SMILES): CC(=O)[O-].CC(=O)[O-].[Pb+2] [Lead Acetate]
Relative activity [1]: 43

Structure (SMILES): O=C(O)CI [Monoiodoacetic Acid]
Relative activity [1]: 84

Structure (SMILES): [Cl][Hg][Cl] [HgCl2]
Inhibition of the enzyme ([1]; 2mM): Inhibition

Structure (SMILES): CC(C)C[C@H](NC(=O)[C@H](C)NC(=O)C[C@H](O)[C@H](CC(C)C)NC(=O)[C@@H](NC(=O)C(C)C)C(C)C)[C@@H](O)CC(=O)O [Isobutyryl-Val-X-Ala-X, N-isobutyryl-Val-X-Ala-X]
IC50 (pepsin (SIGMA, 2XCRY); [5]): 36.7 nM

Structure (SMILES): c1cnc2c(c1)ccc1cccnc12 [o-Phenanthroline]
Inhibition of the enzyme ([1]; 2mM): Inhibition | Relative activity [1, 3]: 0

Structure (SMILES): O[C@H](CS)[C@H](O)CS (racemic) [Dithiothreitol]
Inhibition of the enzyme ([1]; 2mM): Inhibition | Relative activity [1, 3]: 0

Structure (SMILES): CC(C)C[C@H](NC(=O)[C@H](C)NC(=O)C[C@H](O)[C@H](CC(C)C)NC(=O)[C@@H](NC(=O)C(C)O)C(C)C)[C@@H](O)CC(=O)O (some centres unmarked) [Lactoyl-Val-X-Ala-X, lactoyl-Val-X-Ala-X]
IC50 (pepsin (SIGMA, 2XCRY); [5]): 34.8 nM | Water solubility compared with other derivatives (Solubility in water): much more water soluble | Solubility in water (Solubility in water; 20° C): ≥ 50,000 mcg/ml | Acute toxicity LD0 (mice; abdominal injection): ≥ 6000 mg/kg | Acute toxicity LD0 (mice; intravenous injection): ≥ 550 mg/kg

Solubility in water (Solubility in water): 200 µg/mL (≈ 292 µM)
Structure (SMILES): CC(C)CC(=O)N[C@H](C(=O)N[C@H](C(=O)N[C@@H](CC(C)C)[C@@H](O)CC(=O)N[C@@H](C)C(=O)N[C@@H](CC(C)C)[C@@H](O)CC(=O)O)C(C)C)C(C)C [Pepstatin A]

Structure (SMILES): OCCS [β-Mercaptoethanol]
Inhibition of the enzyme ([1]; 2mM): Inhibition | Relative activity [1, 3]: 0

Structure (SMILES): [Ca+2].[Cl-].[Cl-] [Calcium Chloride]
Relative activity [1]: 110 | increase in activity [1]: 29%

Structure (SMILES): CC(C)CC(=O)N[C@H](C(=O)N[C@@H](CC(C)C)[C@@H](O)CC(=O)N[C@@H](C)C(=O)N[C@@H](CC(C)C)[C@@H](O)CC(=O)O)C(C)C [Isovaleryl-Val-X-Ala-X, N-isovaleryl-Val-X-Ala-X]
IC50 (pepsin (SIGMA, 2XCRY); [5]): 17 nM | Solubility in water (Solubility in water; 20° C): 5,000 mcg/ml | Acute toxicity LD0 (mice; abdominal injection): ≥ 3000 mg/kg

Structure (SMILES): O=C(O)c1cc[c]([Hg][Cl])cc1 [p-Chloromercuribenzoate]
Inhibition of the enzyme [1]: Inhibition | Relative activity [1]: 2

Structure (SMILES): CC(=O)[O-].CC(=O)[O-].[Hg+2] [Mercuric Acetate]
Relative activity [1]: 0

Solubility in water (Solubility in water; 20° C): 50 µg/mL (≈ 78.1 µM)
Structure (SMILES): CC(=O)C(CC(C)C)NC(=O)[C@H](C)NC(=O)CC(O)C(CC(C)C)NC(=O)[C@@H](NC(=O)[C@@H](NC(=O)CC(C)C)C(C)C)C(C)C (stereo partly drawn) [Pepstanone A, isovaleryl-Val-Val-X-Ala-X']

Structure (SMILES): CCCCCCCCCCCCCCCC(=O)N[C@H](C(=O)N[C@@H](CC(C)C)[C@@H](O)CC(=O)N[C@@H](C)C(=O)N[C@@H](CC(C)C)[C@@H](O)CC(=O)O)C(C)C [Palmitoyl-Val-X-Ala-X, N-palmitoyl-Val-X-Ala-X]
IC50 (pepsin (SIGMA, 2XCRY); [5]): 607 nM

Structure (SMILES): CC(C)CC(=O)N[C@H](C(=O)N[C@H](C(=O)N[C@@H](CC(C)C)[C@@H](O)CC(=O)N[C@@H](C)C(=O)N[C@@H](CC(C)C)[C@@H](O)CC(=O)O)C(C)C)C(C)C [pepstatin]
curative ratio of the ulcers (Stomach ulcers in rats; 50 mg/kg orally 30 minutes before the stress, rats sacrificed 48 hours after the stress): 60 - 75% | cure of ulcers (Stomach ulcers in rats; 50 - 200 mg/kg immediately after the stress and once daily for 4 days): rapid cure of ulcers was proven

Structure (SMILES): [N-]=[N+]=[N-].[Na+] [NaN3]
Relative activity [1]: 100

Solubility in water (Solubility in water; 20° C): 100 µg/mL (≈ 143 µM)
Structure (SMILES): CCCCCC(=O)N[C@H](C(=O)N[C@H](C(=O)N[C@@H](CC(C)C)[C@@H](O)CC(=O)N[C@@H](C)C(=O)N[C@@H](CC(C)C)[C@@H](O)CC(=O)O)C(C)C)C(C)C [Pepstatin B, n-caproyl-L-valyl-L-valyl-4-amino-3-hydroxy-6-methylheptanoyl-L-alanyl-4-a mino-3-hydroxy-6-methylheptanoic acid]
